Results: ChEMBL document CHEMBL1201862, “PubChem BioAssay data set” (2004)
Values joined by “and” are separate entries in the source; they are usually repeats but may differ in a detail not shown here. Equal entries are not always repeated.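 Five concentrations, 48 hours, 96-well plates. Abbreviation: GI50, concentration required for 50% inhibition of growth.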 Active and inactive are the calls of the source. Cut-off read from the data, not from the text of the source: active = GI50 up to about 1.1 µM and inactive = higher.

How the values were obtained:
Test in all cases: NCI tumour cell line growth inhibition, 48 h
[1] = tested on: XF498
[2] = tested on: KM-20L2
[3] = tested on: NCI-H460
[4] = tested on: UACC-62
[5] = tested on: IGROV-1
[6] = tested on: 786-0
[7] = tested on: TK-10
[8] = tested on: Hs-578T
[9] = tested on: CCRF-CEM
[10] = tested on: SK-MEL-28
[11] = tested on: HCT-116
[12] = tested on: OVCAR-3
[13] = tested on: MOLT-4
[14] = tested on: HT-29
[15] = tested on: SF-295
[16] = tested on: PC-3
[17] = tested on: COLO 205
[18] = tested on: SK-MEL-2
[19] = tested on: SK-MEL-5
[20] = tested on: DU-145

Row | SMILES | GI50 [1] | GI50 [2] | GI50 [3] | GI50 [4] | GI50 [5] | GI50 [6] | GI50 [7] | GI50 [8] | GI50 [9] | GI50 [10] | GI50 [11] | GI50 [12] | GI50 [13] | GI50 [14] | GI50 [15] | GI50 [16] | GI50 [17] | GI50 [18] | GI50 [19] | GI50 [20]
1 | N/C(S)=N/N=C/c1ncccc1O | 1.51 µM (inactive) | 1.39 µM (inactive) | 1.29 µM (inactive) | 0.482 µM (active) | 1.55 µM (inactive) | 1.16 µM (inactive) | 9.57 µM (inactive) | 30.8 µM (inactive) | 0.475 µM (active) | 4.29 µM (inactive) | 1.76 µM (inactive) | 1.88 µM (inactive) | 0.787 µM (active) | 3.56 µM (inactive) | 0.766 µM (active) | 2.97 µM (inactive) | 2.83 µM (inactive) | 6.84 µM (inactive) | – | –
2 | CCCCCCCCCC1CC(=O)OC2=C1C(=O)CCC2 (stereo unspecified) | > 100 µM (inactive) | > 100 µM (inactive) | > 100 µM (inactive) | > 100 µM (inactive) | > 100 µM (inactive) | > 100 µM (inactive) | > 100 µM (inactive) | – | > 100 µM (inactive) | > 100 µM (inactive) | > 100 µM (inactive) | > 100 µM (inactive) | > 100 µM (inactive) | > 100 µM (inactive) | > 100 µM (inactive) | – | > 100 µM (inactive) | > 100 µM (inactive) | > 100 µM (inactive) | –
3 | Clc1ccc(Cc2nc3ccccc3s2)c(Cl)c1 | 13.6 µM (inactive) | 25.6 µM (inactive) | 19.8 µM (inactive) | 14.1 µM (inactive) | 14.8 µM (inactive) | 14.6 µM (inactive) | 22.7 µM (inactive) | – | 5.21 µM (inactive) | 18.3 µM (inactive) | – | 18.6 µM (inactive) | 14.3 µM (inactive) | 20.6 µM (inactive) | 16.8 µM (inactive) | – | 17 µM (inactive) | 16.4 µM (inactive) | 17.5 µM (inactive) | –
4 | O=[N+]([O-])c1ccc(C2=Nc3ccccc3[S+]([O-])C(c3ccccc3)C2)cc1 (stereo unspecified) | 21.4 µM (inactive) | 23.7 µM (inactive) | 24.5 µM (inactive) | 13.6 µM (inactive) | 15.3 µM (inactive) | 17.5 µM (inactive) | 27 µM (inactive) | – | 15.1 µM (inactive) | 20 µM (inactive) | – | 17.5 µM (inactive) | 16.6 µM (inactive) | 19.1 µM (inactive) | 31.3 µM (inactive) | – | 19.7 µM (inactive) | 34.7 µM (inactive) | > 10 µM (inactive) | –
5 | COc1cc(-c2oc3c(OC)c(OC)cc(O)c3c(=O)c2OC)ccc1O [TERNATIN] | 2.2 µM (inactive) | > 100 µM (inactive) | – | 8.39 µM (inactive) and 4.7 µM (inactive) | 4.89 µM (inactive) and 4.1 µM (inactive) | 6.32 µM (inactive) and 12 µM (inactive) | 4.84 µM (inactive) and 8.69 µM (inactive) | 3.93 µM (inactive) | 3.38 µM (inactive) and 2.42 µM (inactive) | – | 5.04 µM (inactive) and 8.69 µM (inactive) | 11.7 µM (inactive) | 12.7 µM (inactive) | > 100 µM (inactive) | – | 20.4 µM (inactive) | > 100 µM (inactive) | – | – | 7.43 µM (inactive)
6 | CCc1cccc(C(C)C)c1NC(=O)/C(=N\NC(N)=O)C(C(=O)OC)c1cnc2ccccc2n1 (stereo unspecified) | > 100 µM (inactive) | 41.6 µM (inactive) | 31.6 µM (inactive) | 26 µM (inactive) | 40.7 µM (inactive) | 60.8 µM (inactive) | > 100 µM (inactive) | – | 39 µM (inactive) | 55.8 µM (inactive) | 24.2 µM (inactive) | 20.8 µM (inactive) | 32.9 µM (inactive) | 35.8 µM (inactive) | 58.5 µM (inactive) | – | 20.9 µM (inactive) | 53.3 µM (inactive) | 18.7 µM (inactive) | –
7 | O=[N+]([O-])c1cccc(C(O)/C(=N/Nc2ccccc2)C2Nc3ccc([N+](=O)[O-])cc3N=C2O)c1 (stereo unspecified) | > 100 µM (inactive) | 23.1 µM (inactive) | 42.9 µM (inactive) | 17.4 µM (inactive) | 38.7 µM (inactive) | > 100 µM (inactive) | > 100 µM (inactive) | – | 81.8 µM (inactive) | > 100 µM (inactive) | > 100 µM (inactive) | 66.7 µM (inactive) | 27.2 µM (inactive) | 50.9 µM (inactive) | 60.4 µM (inactive) | – | 61.1 µM (inactive) | > 100 µM (inactive) | 16.9 µM (inactive) | –
